Target: PAI-1 (Homo sapiens, UniProt P05121)
Assay: PAI chromogenic substrate assay (first S2251 assay, tPA/plasminogen system)
Assay type: biochemical
Experimental: In this assay, a compound is incubated with PAI-1 prior to addition to the tPA assay system. Inhibition of PAI-1 results in the production of plasmin from plasminogen. In turn, plasmin cleaves the chromogenic substrate S2251 (Kabi Vitrum) producing pNA (p-nitroaniline) which is detected spectrophotometrically at 405 nm (K. Nilsson et al, Fibrinolysis (1987) 1, 163-168).
Compounds of formula (A) were tested in a PAI chromogenic substrate assay. In the first assay (K. Nilsson, Fibrinolysis (1987) 1, 163-168) each compound was incubated with PAI-1 prior to addition to the tPA assay system. […] In turn, the plasmin cleaved the chromogenic substrate S2251 (Kabi-Vitrum) producing pNA (p-nitroaniline) which was detected spectrophotometrically at 405 nm.

Sequence of PAI-1 (P05121 24-402): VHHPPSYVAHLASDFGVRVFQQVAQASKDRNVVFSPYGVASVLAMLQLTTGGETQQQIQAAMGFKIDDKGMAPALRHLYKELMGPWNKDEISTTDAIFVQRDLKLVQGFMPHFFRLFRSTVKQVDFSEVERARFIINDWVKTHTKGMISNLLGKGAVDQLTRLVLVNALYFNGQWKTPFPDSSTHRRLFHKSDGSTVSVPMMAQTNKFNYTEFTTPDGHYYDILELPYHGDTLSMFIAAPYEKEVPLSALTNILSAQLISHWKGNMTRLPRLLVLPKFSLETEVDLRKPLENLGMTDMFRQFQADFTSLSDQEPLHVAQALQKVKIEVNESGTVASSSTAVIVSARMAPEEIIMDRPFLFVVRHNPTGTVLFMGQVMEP

| Compound | Inhibition of PAI-1 in the first S2251 chromogenic substrate assay (Concentration 25 μm) | Inhibition of PAI-1 in the first S2251 chromogenic substrate assay (Concentration 50 μm) | Inhibition of PAI-1 in the first S2251 chromogenic substrate assay (Concentration 100 μm) | Inhibition of PAI-1 in the first S2251 chromogenic substrate assay (Concentration 6.25 μm) | Inhibition of PAI-1 in the first S2251 chromogenic substrate assay (Concentration 12.5 μm) | Inhibition of PAI-1 in the first S2251 chromogenic substrate assay (Concentration 3.75 μm) | Inhibition of PAI-1 in the first S2251 chromogenic substrate assay (Concentration 7.5 μm) | Inhibition of PAI-1 in the first S2251 chromogenic substrate assay (Concentration 15 μm) | Inhibition of PAI-1 in the first S2251 chromogenic substrate assay (Concentration 30 μm) | Inhibition of PAI-1 in the first S2251 chromogenic substrate assay (Concentration 60 μm) |
| --- | --- | --- | --- | --- | --- | --- | --- | --- | --- | --- |
| COc1ccc(/C=c2\[nH]c(=O)/c(=C/c3ccc(OC(C)=O)cc3)[nH]c2=O)cc1 [Compound 37, (3Z,6Z)-3-(4-Acetoxybenzylidene)-6-(4-methoxybenzylidene)-2,5-piperazinedione] | 2% | 19% | 69% | – | – | – | – | – | – | – |
| CC(=O)Nc1ccccc1/C=c1\[nH]c(=O)/c(=C/c2ccccc2)[nH]c1=O [Compound 38, (3Z,6Z)-3-(2-Acetamidobenzylidene)-6-benzylidene-2,5-piperazinedione] | 1% | 3% | 64% | 1% | 1% | – | – | – | – | – |
| Nc1ccccc1/C=c1\[nH]c(=O)/c(=C/c2ccccc2)[nH]c1=O [Compound 39, (3Z,6Z)-3-(2-Aminobenzylidene)-6-benzylidene-2,5-piperazinedione] | 1% | 20% | 67% | 0% | 1% | – | – | – | – | – |
| CC(=O)Nc1ccc(/C=c2\[nH]c(=O)/c(=C/c3c(Cl)cccc3Cl)[nH]c2=O)cc1 [Compound 40, (3Z,6Z)-3-(4-Acetamidobenzylidene)-6-(2,6-dichlorobenzylidene)-2,5-piperazinedione] | 23% | 61% | 61% | 1% | 4% | – | – | – | – | – |
| COc1ccc(/C=c2\[nH]c(=O)/c(=C/c3ccc(N(C)C(C)=O)cc3)[nH]c2=O)cc1 [Compound 41, (3Z,6Z)-3-(4-Methoxybenzylidene)-6-(4-N-methylacetamidobenzylidene)-2,5-piperazinedione] | 32% | 45% | 51% | 3% | 8% | – | – | – | – | – |
| CC(=O)Nc1ccc(/C=c2\[nH]c(=O)/c(=C/c3ccc(Cl)cc3)[nH]c2=O)cc1 [Compound 42, (3Z,6Z)-3-(4-Acetamidobenzylidene)-6-(4-chlorobenzylidene)-2,5-piperazinedione] | – | – | – | – | – | 1% | 4% | 59% | 57% | 58% |
| CC(=O)OCc1ccc(/C=c2\[nH]c(=O)/c(=C/c3ccccc3)[nH]c2=O)cc1 [Compound 43, (3Z,6Z)-3-(4-Acetoxymethylbenzylidene)-6-benzylidene-2,5-piperazinedione] | 3% | 45% | 59% | 1% | 1% | – | – | – | – | – |
| CC(=O)NCc1ccc(/C=c2\[nH]c(=O)/c(=C/c3ccccc3)[nH]c2=O)cc1 [Compound 44, (3Z,6Z)-3-(4-Acetamidomethylbenzylidene)-6-benzylidene-2,5-piperazinedione] | 1% | 2% | 51% | 1% | 1% | – | – | – | – | – |
| O=c1[nH]/c(=C\c2ccccc2)c(=O)[nH]/c1=C\c1ccccc1 [Compound 45, (3Z,6Z)-3,6-Dibenzylidene-2,5-piperazinedione] | 1% | 13% | 53% | – | 1% | – | – | – | – | – |
| COc1ccc(/C=c2\[nH]c(=O)/c(=C/c3ccc(S(C)(=O)=O)cc3)[nH]c2=O)cc1 [Compound 46, (3Z,6Z)-3-(4-Methoxybenzylidene)-6-(4-methylsulfonylbenzylidene)-2,5-piperazinedione] | 38% | 42% | 39% | – | 14% | – | – | – | – | – |
| CCCCOc1ccc(/C=c2\[nH]c(=O)/c(=C/c3ccc(OC)cc3)[nH]c2=O)cc1 [Compound 47, (3Z,6Z)-3-(4-Butoxybenzylidene)-6-(4-methoxybenzylidene)-2,5-piperazinedione] | 14% | 58% | 75% | – | 14% | – | – | – | – | – |
| CCCCOc1ccc(/C=c2\[nH]c(=O)/c(=C/c3ccccc3)[nH]c2=O)cc1 [Compound 48, (3Z,6Z)-6-Benzylidene-3-(4-butoxybenzylidene)-2,5-piperazinedione] | 26% | 57% | 73% | – | 3% | – | – | – | – | – |
| COc1ccc(/C=c2\[nH]c(=O)/c(=C/c3ccc(OC(C)C)cc3)[nH]c2=O)cc1 [Compound 49, (3Z,6Z)-3-(4-isopropoxybenzylidene)-6-(4-methoxybenzylidene)-2,5-piperazinedione] | 8% | 47% | 60% | – | 1% | – | – | – | – | – |
| COc1ccc(/C=c2\[nH]c(=O)/c(=C/c3ccc(C(C)(C)C)cc3)[nH]c2=O)cc1 [Compound 50, (3Z,6Z)-3-(4-methoxybenzylidene)-6-(4-tert-butylbenzylidene)-2,5-piperazinedione] | 22% | 37% | 62% | – | 2% | – | – | – | – | – |
| CC(C)(C)c1ccc(/C=c2\[nH]c(=O)/c(=C/c3ccccc3)[nH]c2=O)cc1 [Compound 51, (3Z,6Z)-6-Benzylidene-3-(4-tert-butylbenzylidene)-2,5-piperazinedione] | 38% | 61% | 79% | – | 5% | – | – | – | – | – |
| CC(C)Oc1ccc(/C=c2\[nH]c(=O)/c(=C/c3ccccc3)[nH]c2=O)cc1 [Compound 52, (3Z,6Z)-6-Benzylidene-3-(4-isopropoxybenzylidene)-2,5-piperazinedione] | 15% | 45% | 68% | – | 2% | – | – | – | – | – |
| COc1ccc(/C=c2\[nH]c(=O)/c(=C/c3ccccc3Br)[nH]c2=O)cc1 [Compound 53, (3Z,6Z)-3-(2-Bromobenzylidene)-6-(4-methoxybenzylidene)-2,5-piperazinedione] | 9% | 32% | 55% | – | 2% | – | – | – | – | – |
| O=c1[nH]/c(=C\c2ccc(F)cc2F)c(=O)[nH]/c1=C\c1ccccc1 [Compound 54, (3Z,6Z)-6-Benzylidene-3-(2,4-difluorobenzylidene)-2,5-piperazinedione] | 1% | 0% | 50% | – | 0% | – | – | – | – | – |
| O=c1[nH]/c(=C\c2ccccc2Br)c(=O)[nH]/c1=C\c1ccccc1 [Compound 55, (3Z,6Z)-6-Benzylidene-3-(2-bromobenzylidene)-2,5-piperazinedione] | 11% | 43% | 65% | – | 1% | – | – | – | – | – |
| COc1ccc(/C=c2\[nH]c(=O)/c(=C/c3ccc(CNC(=O)OC(C)(C)C)cc3)[nH]c2=O)cc1 [Compound 56, (3Z,6Z)-(4-Methoxybenzylidene)-6-(4-tert-butoxycarbonylaminomethylbenzylidene)-2,5-piperazinedione] | 15% | 60% | 82% | – | 2% | – | – | – | – | – |
| COc1ccc(/C=c2\[nH]c(=O)/c(=C/c3ccc(CSC)cc3)[nH]c2=O)cc1 [Compound 57, (3Z,6Z)-3-(4-Methoxybenzylidene)-6-(4-methylthiomethylbenzylidene)-2,5-piperazinedione] | 38% | 72% | 82% | – | 2% | – | – | – | – | – |
| CC(=O)Nc1ccc(/C=c2\[nH]c(=O)/c(=C/c3ccc(COC(C)=O)cc3)[nH]c2=O)cc1 [Compound 58, (3Z,6Z)-3-(4-Acetamidobenzylidene)-6-(4-acetoxymethylbenzylidene)-2,5-piperazinedione] | 1% | 31% | 60% | – | 1% | – | – | – | – | – |
